Patent US20230192691A1, “HETEROCYCLIC COMPOUNDS AS BTK INHIBITORS” (Beijing InnoCare Pharma Tech Co., Ltd., priority 2020, published 2023)

Assays:
[1] = target: T1, human recombinant BTK C481S protein (Homo sapiens, UniProt Q06187, C481S); test: BTK C481S activity inhibition assay (HTRF in vitro kinase assay); assay type: biochemical; conditions: 35 μM ATP, 1.5 ng/μL BTK C481S
T1 construct: made in house
Procedure: In vitro kinase assay was used to evaluate the effects of compounds of the present invention on BTK C481S activity (Table 1).
(§1) By using the homogeneous time-resolved fluorescence (HTRF) kinase detection kit (Cisbio, catalog number 62TK0PEC), the enzymatic activity of BTK C481S is determined by detecting the phosphorylation level of the substrate in the kinase reaction. The reaction buffer contains the enzyme reaction buffer (1×) from the kit, 5 mM MgCl2, 1 mM DTT, 10 nM SEB, and 0.01% Tween-20; the kinase reaction solution contains human recombinant BTK C481S protein (purified in-house) diluted to 1.5 ng/μL with the reaction buffer; the substrate reaction solution contains biotin-labeled tyrosine kinase substrate diluted to 0.5 μM with the reaction buffer and 35 μM ATP; the detection buffer contains Eu^3+-labeled cage antibody diluted to 0.05 ng/μL and streptavidin-labeled XL665 antibody diluted to 31.25 nM with the reaction buffer; the test compound is dissolved and diluted to 100 μM with DMSO, followed by a 4-fold serial dilution with DMSO to the lowest concentration of 6.1 nM and finally 40-time dilution with the reaction buffer for each concentration point. If the IC50 value of the compound is very low, the initial concentration of the compound is reduced.
(§2) Add 4 μL test compound solution and 2 μL kinase reaction solution to a 384-well detection plate (Corning, catalog number 3674), mix well and incubate at room temperature for 15 minutes; add 4 μL substrate reaction solution and incubate for 50 minutes; add 10 μL detection buffer, mix well and stand for 60 minutes; detect signal at 620 nm and 665 nm using an Envision plate reader (Perkin Elmer). The signal value (absorbance at 665 nm/absorbance at 620 nm) is positively correlated with the degree of phosphorylation of the substrate, thereby detecting the kinase activity of BTK C481S. In this experiment, the group without BTK is the negative control (100% inhibition) and the group with BTK C481 S but no compound is the positive control (0% inhibition). The inhibition curve is plotted and the corresponding IC50 value of the test compound is calculated using XLfit software (TD Business Solutions Ltd., UK).

[2] = target: T2, human-derived recombinant BTK protein (Homo sapiens, UniProt Q06187); test: BTK activity inhibition assay (HTRF in vitro kinase assay); assay type: biochemical; conditions: 40 μM ATP, 0.2 ng/μL BTK
T2 construct: purchased Carna Biosciences 08-180
Procedure: In vitro kinase assay was used to evaluate the effects of compounds of the present invention on BTK activity (Table 1).
as §1, with “BTK” for “BTK C481S”, “SEB” for “SEB,”, “human-derived” for “human”, “(Carna Biosciences, Catalog No. 08-180)” for “(purified in-house)”, “0.2” for “1.5”, “40” for “35”
as §2, with “BTK.” for “BTK C481S.”, “BTK” for “BTK C481 S”, “(ID” for “(TD”

T1 sequence (Q06187 whole entry C481S): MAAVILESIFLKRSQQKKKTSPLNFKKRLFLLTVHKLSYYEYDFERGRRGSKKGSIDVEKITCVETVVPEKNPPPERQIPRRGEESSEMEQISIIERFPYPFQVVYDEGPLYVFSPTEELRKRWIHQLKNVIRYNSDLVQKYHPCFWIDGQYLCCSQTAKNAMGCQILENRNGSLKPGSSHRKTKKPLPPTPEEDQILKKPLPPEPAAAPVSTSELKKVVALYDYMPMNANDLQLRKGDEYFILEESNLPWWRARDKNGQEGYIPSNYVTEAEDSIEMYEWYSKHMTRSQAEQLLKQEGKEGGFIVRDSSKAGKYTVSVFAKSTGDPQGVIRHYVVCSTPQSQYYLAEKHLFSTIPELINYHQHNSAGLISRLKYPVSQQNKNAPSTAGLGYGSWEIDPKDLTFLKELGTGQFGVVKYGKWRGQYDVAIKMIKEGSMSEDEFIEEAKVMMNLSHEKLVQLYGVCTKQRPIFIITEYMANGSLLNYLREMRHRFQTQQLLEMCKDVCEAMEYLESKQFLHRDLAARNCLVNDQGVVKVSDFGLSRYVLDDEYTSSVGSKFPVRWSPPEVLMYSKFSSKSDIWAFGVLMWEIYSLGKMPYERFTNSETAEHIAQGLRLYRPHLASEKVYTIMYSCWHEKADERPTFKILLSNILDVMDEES
T2 sequence (Q06187 whole entry): as the sequence (Q06187 whole entry C481S) above, with S481C counted along it

SMILES	IC50 [1] [nM]	IC50 [2] [nM]
COc1ccc(F)cc1C(=O)NCc1ccc(-c2nn(C3CCOCC3)c3ccnc(N)c23)cc1 [Compound 1, N-(4-(4-amino-1-(tetrahydro-2H-pyran-4-yl)-1H-pyrazolo[4,3-c]pyridin-3-yl)benzyl)-5-fluoro-2-methoxybenzamide]	3.5	17
COc1ccc(F)cc1C(=O)NCc1ccc(-c2nn(C3CCC(CO)CC3)c3ccnc(N)c23)cc1 (centres unmarked) [Compound 2, N-(4-(4-amino-1-(4-(hydroxymethyl)cyclohexyl)-1H-pyrazolo[4,3-c]pyridin-3-yl)benzyl)-5-fluoro-2-methoxybenzamide]	2.5	1.7
COc1ccc(F)cc1C(=O)NCc1ccc(-c2nn([C@H]3CC[C@@H](O)CC3)c3ccnc(N)c23)cc1 [Compound 3, N-(4-(4-amino-1-((1s,4s)-4-hydroxycyclohexyl)-1H-pyrazolo[4,3-c]pyridin-3-yl)benzyl)-5-fluoro-2-methoxybenzamide]	4.6	3.2
COc1ccc(F)cc1C(=O)NCc1ccc(-c2nn([C@H]3CC[C@H](O)CC3)c3ccnc(N)c23)cc1 [Compound 4, N-(4-(4-amino-1-((1r,4r)-4-hydroxycyclohexyl)-1H-pyrazolo[4,3-c]pyridin-3-yl)benzyl)-5-fluoro-2-methoxybenzamide]	3	2.3
COc1ccc(F)cc1C(=O)NCc1ccc(-c2nc(N3CCC(CO)CC3)n3ccnc(N)c23)cc1 [Compound 6, N-(4-(8-amino-3-(4-(hydroxymethyl)piperidin-1-yl)imidazo[1,5-a]pyrazin-1-yl)benzyl)-5-fluoro-2-methoxybenzamide]	3.3	4.6
COc1ccc(F)cc1C(=O)NCc1ccc(-c2nc(C3CCCC3)n3ncnc(N)c23)cc1 [Compound 12, N-(4-(4-amino-7-cyclopentylimidazo[5,1-f][1,2,4]triazin-5-yl)benzyl)-5-fluoro-2-methoxybenzamide]		3
COc1ccc(F)cc1C(=O)NCc1ccc(-c2nc([C@H]3CC[C@H](C(=O)O)CC3)n3ccnc(N)c23)cc1 [Compound 13, (1r,4r)-4-(8-amino-1-(4-((5-fluoro-2-methoxybenzamido)methyl)phenyl)imidazo[1,5-a]pyrazin-3-yl)cyclohexane-1-carboxylic acid]	0.8	1.4
COc1ccc(F)cc1C(=O)NCc1ccc(-c2nc([C@H]3CC[C@H](CO)CC3)n3ncnc(N)c23)cc1 [Compound 14, N-(4-(4-amino-7-((1r,4r)-4-(hydroxymethyl)cyclohexyl)imidazo[5,1-f][1,2,4]triazin-5-yl)benzyl)-5-fluoro-2-methoxybenzamide]	2.9	3.2
COc1ccc(F)cc1C(=O)NCc1ccc(-c2nc([C@H]3CC[C@H](C(=O)O)CC3)n3ncnc(N)c23)cc1 [Compound 15, (1r,4r)-4-(4-amino-5-(4-((5-fluoro-2-methoxybenzamido)methyl)phenyl)imidazo[5,1-f][1,2,4]triazin-7-yl)cyclohexane-1-carboxylic acid]	1.1	1.4
COc1ccc(F)cc1C(=O)NCc1ccc(-c2nc(C3CCCOC3)n3ncnc(N)c23)cc1 (centres unmarked) [Compound 16, N-(4-(4-amino-7-(tetrahydro-2H-pyran-3-yl)imidazo[5,1-f][1,2,4]triazin-5-yl)benzyl)-5-fluoro-2-methoxybenzamide]	1.1	1.8
COc1ccc(F)cc1C(=O)NCc1ccc(-c2nc(C3CCOC3)n3ncnc(N)c23)cc1 (centres unmarked) [Compound 17, N-(4-(4-amino-7-(tetrahydrofuran-3-yl)imidazo[5,1-f][1,2,4]triazin-5-yl)benzyl)-5-fluoro-2-methoxybenzamide]	2.4	6.3
[2H]C([2H])([2H])Oc1ccc(F)cc1C(=O)NCc1ccc(-c2nc([C@H]3CC[C@H](CO)CC3)n3ncnc(N)c23)cc1 [Compound 18, N-(4-(4-amino-7-((1r,4r)-4-(hydroxymethyl)cyclohexyl)imidazo[5,1-f][1,2,4]triazin-5-yl)benzyl)-5-fluoro-2-(methoxy-d3)benzamide]	0.8	0.7
COc1ccc(C)nc1C(=O)NCc1ccc(-c2nc(C3CCCOC3)n3ccnc(N)c23)cc1 (centres unmarked) [Compound 19, N-(4-(8-amino-3-(tetrahydro-2H-pyran-3-yl)imidazo[1,5-a]pyrazin-1-yl)benzyl)-3-methoxy-6-methylpicolinamide]	201	212
COc1ccc(F)cc1C(=O)NCc1ccc(-c2nc([C@@H]3CCNC3)n3ncnc(N)c23)cc1 [Compound 22, (R)-N-(4-(4-amino-7-(pyrrolidin-3-yl)imidazo[5,1-f][1,2,4]triazin-5-yl)benzyl)-5-fluoro-2-methoxybenzamide]	36	155

Now from value to compound:

IC50 [1] [nM]	IC50 [2] [nM]	SMILES
2.6	4.6	COc1ccc(F)cc1C(=O)NCc1ccc(-c2nc([C@H]3CC[C@H](CO)CC3)n3ccnc(N)c23)cc1 [Compound 5, N-(4-(8-amino-3-((1r,4r)-4-(hydroxymethyl)cyclohexyl)imidazo[1,5-a]pyrazin-1-yl)benzyl)-5-fluoro-2-methoxybenzamide]
1.7	3.4	COc1ccc(F)cc1C(=O)NCc1ccc(-c2nc([C@H]3CC[C@H](CN)CC3)n3ccnc(N)c23)cc1 [Compound 7, N-(4-(8-amino-3-((1r,4r)-4-(aminomethyl)cyclohexyl)imidazo[1,5-a]pyrazin-1-yl)benzyl)-5-fluoro-2-methoxybenzamide]
0.8	1.2	COc1ccc(F)cc1C(=O)NCc1ccc(-c2nc(C3CCC(CO)OC3)n3ccnc(N)c23)cc1 (centres unmarked) [Compound 8, N-(4-(8-amino-3-(6-(hydroxymethyl)tetrahydro-2H-pyran-3-yl)imidazo[1,5-a]pyrazin-1-yl)benzyl)-5-fluoro-2-methoxybenzamide]
498	718	Nc1nccn2c(C3CCC(CO)OC3)nc(-c3ccc(CNC(=O)c4ccccn4)cc3)c12 (centres unmarked) [Compound 9, N-(4-(8-amino-3-(6-(hydroxymethyl)tetrahydro-2H-pyran-3-yl)imidazo[1,5-a]pyrazin-1-yl)benzyl)picolinamide]
3.6	14	COc1ccccc1C(=O)NCc1ccc(-c2nc(C3CCC(CO)OC3)n3ccnc(N)c23)cc1 (centres unmarked) [Compound 10, N-(4-(8-amino-3-(6-(hydroxymethyl)tetrahydro-2H-pyran-3-yl)imidazo[1,5-a]pyrazin-1-yl)benzyl)-2-methoxybenzamide]
3.9	20	COc1ccccc1C(=O)NCc1ccc(-c2nc(C3CCC(CO)OC3)n3ccnc(N)c23)cc1F (centres unmarked) [Compound 11, N-(4-(8-amino-3-(6-(hydroxymethyl)tetrahydro-2H-pyran-3-yl)imidazo[1,5-a]pyrazin-1-yl)-2-fluorobenzyl)-2-methoxybenzamide]
1.8	1.7	COc1ccc(F)cc1C(=O)NCc1ccc(-c2nc(C3CCCOC3)n3ccnc(N)c23)cc1 (centres unmarked) [Compound 21, N-(4-(8-amino-3-(tetrahydro-2H-pyran-3-yl)imidazo[1,5-a]pyrazin-1-yl)benzyl)-5-fluoro-2-methoxybenzamide]
